Here are results for eleven compounds from publication PMC9268516 (Molecules, 2022).

A value given as a limit tells only on which side of the number the result lay.

One data set has as its system H1N1. To be noted: cited from earlier work.
For another data set, the system named is chemokine co-receptor 5. To be noted: cited from earlier work.
The nature of a further data set: in vitro. The note with it: Rhesus monkey.
A further data set concerns RAW 264.7 cells. To be noted: cited from earlier work.
The subject of another data set is influenza A/WSN/33 virus. The note with it: cited from earlier work.

As to `CC(C)/C=c1\[nH]c(=O)/c(=C/c2ccc(O)cc2)[nH]c1=O` [(3Z,6Z)-3-(4-hydroxybenzylidene)-6-isobutylidenepiperazine-2,5-dione, reference compound], the IC50 (in general, the point on the concentration scale where inhibition reaches its midpoint) with H1N1 is 6.8 ± 1.5 µM. For `CCCCN1C(=O)[C@@H]([C@H](O)C2CCCCC2)NC(=O)C12CCN(Cc1ccc(Oc3ccc(C(=O)O)cc3)cc1)CC2` [Aplaviroc], the “binding affinity to chemokine co-receptor 5” value with chemokine co-receptor 5 was “high binding affinity”. Turning to `C=CCn1c(=O)/c(=C/C(C)C)[nH]c(=O)/c1=C/c1ccccc1` [Compound 13b, (3Z,6Z)-4-Allyl-3-benzylidene-6-(2-methylpropylidene)-2,5-diketopiperazine], in “in vitro”, the half-inhibitory concentration (IC50) is greater than 128 µg/mL.

Turning to `CC(C)=CCn1c(=O)/c(=C/C(C)C)[nH]c(=O)/c1=C/c1ccccc1` [Compound 13c, (3Z,6Z)-3-Benzylidene-6-(2-methylpropylidene)-4-(3-methylbut-2-en-1-yl)-2,5-diketopiperazine], the melting point (as a rule, the temperature, or range, at which the solid turns liquid) lay within 175 to 178 °C. Moreover, in the data set “in vitro”, the IC50 was greater than 128 µg/mL. In the data set “in vitro”, `CC(C)/C=c1/c(=O)[nH]/c(=C\c2ccccc2)c(=O)n1C` [Compound 13d, (3Z,6Z)-3-Benzylidene-6-(2-methylpropylidene)-1-methyl-2,5-diketopiperazine] displayed an IC50 greater than 128 µg/mL. Take `C=CCn1c(=O)/c(=C/c2ccccc2)[nH]c(=O)/c1=C/C(C)C` [Compound 13e, (3Z,6Z)-1-Allyl-3-benzylidene-6-(2-methylpropylidene)-2,5-diketopiperazine]: the melting point was in the range of 115 to 119 °C. Regarding `CC(C)/C=c1\[nH]c(=O)/c(=C/c2ccccc2)[nH]c1=O` [Compound 13f, (3Z,6Z)-3-Benzylidene-6-(2-methylpropylidene)-2,5-diketopiperazine], the melting point was in the range of 243 to 246 °C. Moreover, the IC50 in the data set with H1N1 is 41.5 ± 4.5 µM. Turning to `CC(C)C=c1c(=O)[nH]c(=Cc2ccccc2)c(=O)n1CCN1CCCC1` [Compound 14c, (3Z,6E)-3-Benzylidene-6-(2-methylpropylidene)-1-(1-ethylpyrrolidine)-2,5-diketopiperazine], the melting point lay within 158 to 162 °C. The compound further yielded an IC50 in the data set “in vitro” greater than 128 µg/mL. On to `CC(C)/C=c1\c(=O)n(O)/c(=C/c2ccccc2)c(=O)n1C` [LS-C, reference compound], for which the anti-inflammatory effect entry in the data set on RAW 264.7 cells is recorded as “anti-inflammatory effect”. The compound further displayed an IC50 in “in vitro” greater than 128 µg/mL. Turning to `CC(C)/C=c1\c(=O)[nH]/c(=C/c2ccccc2)c(=O)n1C` [LS-D, reference compound], the anti-inflammatory effect result in the data set on RAW 264.7 cells was “anti-inflammatory effect”. Moreover, the IC50 in the data set “in vitro” is greater than 128 µg/mL. Consider `C=CC(C)(C)c1[nH]c2ccccc2c1/C=c1\[nH]c(=O)c(=C)[nH]c1=O` [Neoechinulin B], for which the inhibitory rate in the data set on influenza A/WSN/33 virus was 70.48%.
